Laboratory results from patent US12686665B2, “Bicyclic fused ring derivative or salt thereof and pharmaceutical composition comprising same” (YUHAN CORPORATION, priority 2021, dated 2026).
Structures can show the parent of a compound that is named as a salt.

Assays:
Type in all cases: biochemical
[1] = biological target: T1, recombinant human Lysyl Oxidase-Like 2 (LOXL2) (Homo sapiens, UniProt Q9Y4K0); test: Amplex Red HRP-coupled amine oxidase assay, recombinant human LOXL2; settings: 60 min incubation with enzyme at 37° C., putrescine substrate, read-out: Inhibitory activity (IC50, nM) human LOXL2
T1 construct: purchased R&D systems
T1 sequence (Q9Y4K0 26-774): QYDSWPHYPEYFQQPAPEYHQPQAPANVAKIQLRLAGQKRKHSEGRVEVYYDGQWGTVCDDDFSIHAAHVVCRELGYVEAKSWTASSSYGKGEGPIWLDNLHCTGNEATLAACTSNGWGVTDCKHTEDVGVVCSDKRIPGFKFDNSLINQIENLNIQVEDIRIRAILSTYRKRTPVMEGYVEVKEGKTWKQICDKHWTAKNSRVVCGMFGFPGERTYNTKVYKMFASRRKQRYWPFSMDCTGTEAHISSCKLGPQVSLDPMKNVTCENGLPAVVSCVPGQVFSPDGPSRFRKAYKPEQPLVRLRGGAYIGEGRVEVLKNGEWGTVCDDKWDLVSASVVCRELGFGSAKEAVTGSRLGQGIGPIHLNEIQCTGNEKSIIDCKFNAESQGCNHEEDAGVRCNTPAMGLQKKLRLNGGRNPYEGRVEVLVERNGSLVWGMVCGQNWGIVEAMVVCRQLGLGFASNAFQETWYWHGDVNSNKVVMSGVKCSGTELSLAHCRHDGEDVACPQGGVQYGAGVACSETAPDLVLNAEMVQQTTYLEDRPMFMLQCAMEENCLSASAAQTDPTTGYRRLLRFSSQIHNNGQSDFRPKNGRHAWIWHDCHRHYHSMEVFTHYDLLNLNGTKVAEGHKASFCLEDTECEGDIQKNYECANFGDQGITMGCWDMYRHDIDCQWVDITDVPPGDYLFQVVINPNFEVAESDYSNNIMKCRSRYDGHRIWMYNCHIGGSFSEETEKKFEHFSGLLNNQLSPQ
Method in brief: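 Putrescine substrate (30 mM) in 50 mM sodium phosphate pH 7.4, 37 °C; compounds preincubated 60 min with enzyme, 1% DMSO final, six-point curves. H2O2 detected via 400 μM Amplex Red/2 U/mL HRP, fluorescence (ex 530/em 590 nm) after 1 h; IC50 from four-parameter logistic fit of % signal reduction.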

[2] = biological target: T2, recombinant human MAO-A (monoamine oxidase-A) (Homo sapiens, UniProt P21397); test: Amplex Red HRP-coupled amine oxidase assay, recombinant human MAO-A; settings: 0.5 mM tyramine substrate, read-out: Inhibitory activity (IC50, nM) MAO-A
T2 construct: purchased Sigma-Aldrich
T2 sequence (P21397 1-527): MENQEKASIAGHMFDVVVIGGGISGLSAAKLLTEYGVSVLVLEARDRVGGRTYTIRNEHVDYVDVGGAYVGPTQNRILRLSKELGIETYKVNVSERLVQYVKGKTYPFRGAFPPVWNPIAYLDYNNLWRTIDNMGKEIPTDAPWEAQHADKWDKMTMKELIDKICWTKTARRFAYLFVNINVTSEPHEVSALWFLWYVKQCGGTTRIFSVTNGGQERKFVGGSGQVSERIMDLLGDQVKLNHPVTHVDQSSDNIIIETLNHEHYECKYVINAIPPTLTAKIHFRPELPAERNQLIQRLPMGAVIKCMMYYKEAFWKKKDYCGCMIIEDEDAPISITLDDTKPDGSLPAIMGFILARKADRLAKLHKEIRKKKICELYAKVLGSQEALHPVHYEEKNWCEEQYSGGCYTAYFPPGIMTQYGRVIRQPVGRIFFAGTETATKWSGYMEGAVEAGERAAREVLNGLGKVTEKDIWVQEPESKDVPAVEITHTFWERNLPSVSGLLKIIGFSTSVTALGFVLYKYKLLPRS
Procedure: (§1) The activities of the compounds according to the present invention against recombinant human Lysyl Oxidase-Like 2 (recombinant human LOXL2, R&D systems) were evaluated by measuring the levels of hydrogen peroxide in the HRP (horseradish peroxidase) coupled reactions, with the Amplex Red Hydrogen Peroxide Assay Kit (Molecular Probes, Invitrogen, USA). The tests were carried out at 37° C., and putrescine was used as a substrate. In the HRP coupling reaction, the oxidation of 10-acetyl-3,7-dihydroxyphenoxazine (Amplex Red reagent) by hydrogen peroxide generates a fluorescent product, i.e., resorufin. Briefly, the test compounds were dissolved in dimethyl sulfoxide (DMSO) at a concentration of 20 mM. Dose-response measurements were carried out by serial dilutions in DMSO to generate a six-point curve. The upper concentration was adjusted according to the potency of the compound, and then diluted with the reaction buffer to obtain a final DMSO concentration of 1%. Purified human LOXL2 in 50 mM sodium phosphate buffer (pH7.4) was added to each well of a 96 well black plate. The test compounds dissolved in DMSO were incubated with the human LOXL2 enzyme at 37° C. for 60 minutes. After the incubation for 60 minutes, a reaction mixture containing 400 μM Amplex Red reagent, 30 mM putrescine, and 2 U/mL HRP in 50 mM sodium phosphate buffer (pH 7.4) was added to each well. Fluorescence was measured with a microplate reader (Flexstation3, Molecular Devices), under the conditions of excitation at 530 nm and emission at 590 nm, 1 hour after the addition of the mixture. Inhibition by each compound was measured as % reduction in signal, compared to the control without an inhibitor (diluted DMSO only). The data were fixed to a four-variable logistic model, and […] values were calculated using the GraphPad Prism program.
(§2) And, the activities of the compounds according to the present invention against recombinant human MAO-A (monoamine oxidase-A, Sigma-Aldrich) and recombinant human MAO-B (monoamine oxidase-B, Sigma-Aldrich) were evaluated in a similar manner to the activity evaluation method for recombinant human LOXL2, using 0.5 mM tyramine and 1 mM benzylamine as a substrate, respectively. In addition, the activities of the compounds according to the present invention against recombinant human DAO (diamine oxidase, R&D systems) were evaluated in a similar manner to the activity evaluation method for recombinant human LOXL2, using 1 mM putrescine as a substrate.

[3] = biological target: T3, recombinant human MAO-B (monoamine oxidase-B) (Homo sapiens, UniProt P27338); test: Amplex Red HRP-coupled amine oxidase assay, recombinant human MAO-B; settings: 1 mM benzylamine substrate, read-out: Inhibitory activity (IC50, nM) MAO-B
T3 construct: purchased Sigma-Aldrich
T3 sequence (P27338 1-520): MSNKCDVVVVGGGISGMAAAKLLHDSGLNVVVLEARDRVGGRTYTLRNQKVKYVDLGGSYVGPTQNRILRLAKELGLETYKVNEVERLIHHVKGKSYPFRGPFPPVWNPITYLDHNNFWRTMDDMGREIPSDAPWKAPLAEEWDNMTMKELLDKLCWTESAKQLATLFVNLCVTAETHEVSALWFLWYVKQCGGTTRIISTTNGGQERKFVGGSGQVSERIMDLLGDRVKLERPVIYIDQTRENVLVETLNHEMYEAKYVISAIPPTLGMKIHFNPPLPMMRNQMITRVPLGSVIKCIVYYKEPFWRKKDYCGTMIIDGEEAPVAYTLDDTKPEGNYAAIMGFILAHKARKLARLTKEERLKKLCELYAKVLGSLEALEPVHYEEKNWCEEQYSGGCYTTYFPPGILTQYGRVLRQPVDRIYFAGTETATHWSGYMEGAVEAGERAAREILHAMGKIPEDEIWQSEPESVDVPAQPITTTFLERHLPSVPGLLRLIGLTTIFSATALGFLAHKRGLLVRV
Procedure: as §1, §2

[4] = biological target: T4, recombinant human DAO (diamine oxidase) (Homo sapiens, UniProt P19801); test: Amplex Red HRP-coupled amine oxidase assay, recombinant human DAO; settings: 1 mM putrescine substrate, read-out: Inhibitory activity (IC50, nM) DAO
T4 construct: purchased R&D systems
T4 sequence (P19801 20-751): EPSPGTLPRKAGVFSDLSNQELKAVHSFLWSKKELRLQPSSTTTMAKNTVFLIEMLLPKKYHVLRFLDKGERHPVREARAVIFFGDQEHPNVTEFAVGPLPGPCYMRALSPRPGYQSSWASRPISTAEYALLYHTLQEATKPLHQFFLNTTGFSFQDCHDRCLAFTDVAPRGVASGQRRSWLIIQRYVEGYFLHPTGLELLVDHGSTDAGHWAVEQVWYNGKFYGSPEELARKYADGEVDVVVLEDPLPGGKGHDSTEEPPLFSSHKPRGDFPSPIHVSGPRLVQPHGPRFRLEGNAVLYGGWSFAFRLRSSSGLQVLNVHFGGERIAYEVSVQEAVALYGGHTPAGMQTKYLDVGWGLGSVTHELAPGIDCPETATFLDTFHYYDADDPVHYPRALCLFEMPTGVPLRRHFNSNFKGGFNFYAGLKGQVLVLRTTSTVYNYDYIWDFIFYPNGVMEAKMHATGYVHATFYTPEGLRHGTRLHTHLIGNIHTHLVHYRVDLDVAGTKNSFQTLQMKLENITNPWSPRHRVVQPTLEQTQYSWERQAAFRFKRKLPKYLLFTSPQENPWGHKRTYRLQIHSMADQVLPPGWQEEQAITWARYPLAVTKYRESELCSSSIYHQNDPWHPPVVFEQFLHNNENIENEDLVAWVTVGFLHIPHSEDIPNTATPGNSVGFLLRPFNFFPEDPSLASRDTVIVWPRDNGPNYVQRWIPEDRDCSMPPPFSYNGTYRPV
Method in brief: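 Enzyme preincubated 60 min at 37 °C with compound (six-point curve, 1% DMSO final) in 50 mM sodium phosphate pH 7.4, then Amplex Red 400 μM and HRP 2 U/mL added with substrate: MAO-A 0.5 mM tyramine, MAO-B 1 mM benzylamine, DAO 1 mM putrescine. Resorufin fluorescence read after 1 h; IC50 by four-parameter logistic fit.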

SMILES | IC50 [1] [nM] | IC50 [2] [nM] | IC50 [3] [nM] | IC50 [4] [nM]
COC(=O)c1cc(-c2cccc(S(=O)(=O)N(C)C)c2)c2ncn(C/C(F)=C/CN)c2c1 [Example 31, methyl (Z)-1-(4-amino-2-fluorobut-2-en-1-yl)-4-(3-(N,N-dimethysulfamoyl)phenyl)-1H-benzo[d]imidazol-6-carboxylate hydrochloride] | 19.4 | 24600 | > 100000 | 139
CCS(=O)(=O)c1cccc(-c2cc(C(=O)OC)cc3c2ncn3C/C(F)=C/CN)c1 [Example 34, methyl (Z)-1-(4-amino-2-fluorobut-2-en-1-yl)-4-(3-(ethylsulfonyl)phenyl)-1H-benzo[d]imidazol-6-carboxylate hydrochloride] | 37.6 | > 100000 | > 100000 | 495
COC(=O)c1cc(-c2cc(S(=O)(=O)C(F)(F)F)ccc2C)c2ncn(C/C(F)=C/CN)c2c1 [Example 35, methyl (Z)-1-(4-amino-2-fluorobut-2-en-1-yl)-4-(2-methyl-5-((trifluoromethyl)sulfonyl)phenyl)-1H-benzo[d]imidazol-6-carboxylate hydrochloride] | 67.6 | > 100000 | > 100000 | 47700
COC(=O)c1cc(-c2cccc(P(C)(C)=O)c2)c2ncn(C/C(F)=C/CN)c2c1 [Example 38, methyl (Z)-1-(4-amino-2-fluorobut-2-en-1-yl)-4-(3-(dimethylphosphoryl)phenyl)-1H-benzo[d]imidazol-6-carboxylate hydrochloride] | 82.3 | > 100000 | > 100000 | 44500
COC(=O)c1cc(-c2cccc(S(=O)(=O)N(C)C)c2)c2nc(C)n(C/C(F)=C/CN)c2c1 [Example 66, methyl (Z)-1-(4-amino-2-fluorobut-2-en-1-yl)-4-(3-(N,N-dimethylsulfamoyl)phenyl)-2-methyl-1H-benzo[d]imidazol-6-carboxylate hydrochloride] | 28 | 7890 | > 100000 | 1610
COC(=O)c1cc(-c2cccc(S(C)(=O)=O)c2)c2nc(C)n(C/C(F)=C/CN)c2c1 [Example 67, methyl (Z)-1-(4-amino-2-fluorobut-2-en-1-yl)-2-methyl-4-(3-(methylsulfonyl)phenyl)-1H-benzo[d]imidazol-6-carboxylate hydrochloride] | 83 | > 100000 | > 100000 | 646

Further lines, results first:

IC50 [1] [nM] | IC50 [2] [nM] | IC50 [3] [nM] | IC50 [4] [nM] | SMILES
68 | > 100000 | > 100000 | > 100000 | CNS(=O)(=O)c1cccc(-c2cccc3c2nc(C(F)(F)F)n3C/C(F)=C/CN)c1 [Example 53, (Z)-3-(1-(4-amino-2-fluorobut-2-en-1-yl)-2-(trifluoromethyl)-1H-benzo[d]imidazol-4-yl)-N-methylbenzenesulfonamide hydrochloride]
74 | 6540 | > 100000 | 227 | Cc1nc2c(-c3cccc(S(=O)(=O)N(C)C)c3)cccc2n1C/C(F)=C/CN [Example 56, (Z)-3-(1-(4-amino-2-fluorobut-2-en-1-yl)-2-methyl-1H-benzo[d]imidazol-4-yl)-N,N-dimeth ylbenzenesulfonamide hydrochloride]
92 | 64200 | > 100000 | 636 | Cc1nc2c(-c3cccc(S(=O)(=O)N4CCCC4)c3)cccc2n1C/C(F)=C/CN [Example 60, (Z)-3-fluoro-4-(2-methyl-4-(3-(pyrrolidin-1-ylsulfonyl)phenyl)-1H-benzo[d]imidazol-1-yl)but-2-en-1-amine hydrochloride]
